From publication PMC4599563 (ACS Medicinal Chemistry Letters, 2015) come the findings set out here.

pIC50: −log10 of the molar value.

The target of this experiment is mouse SR-BI (Mus musculus, UniProt Q61009). As to the kind of experiment: [3H]cholesteryl ester uptake assay. The experiment is classed as cell-based.
mouse SR-BI, sequence (Q61009 whole entry): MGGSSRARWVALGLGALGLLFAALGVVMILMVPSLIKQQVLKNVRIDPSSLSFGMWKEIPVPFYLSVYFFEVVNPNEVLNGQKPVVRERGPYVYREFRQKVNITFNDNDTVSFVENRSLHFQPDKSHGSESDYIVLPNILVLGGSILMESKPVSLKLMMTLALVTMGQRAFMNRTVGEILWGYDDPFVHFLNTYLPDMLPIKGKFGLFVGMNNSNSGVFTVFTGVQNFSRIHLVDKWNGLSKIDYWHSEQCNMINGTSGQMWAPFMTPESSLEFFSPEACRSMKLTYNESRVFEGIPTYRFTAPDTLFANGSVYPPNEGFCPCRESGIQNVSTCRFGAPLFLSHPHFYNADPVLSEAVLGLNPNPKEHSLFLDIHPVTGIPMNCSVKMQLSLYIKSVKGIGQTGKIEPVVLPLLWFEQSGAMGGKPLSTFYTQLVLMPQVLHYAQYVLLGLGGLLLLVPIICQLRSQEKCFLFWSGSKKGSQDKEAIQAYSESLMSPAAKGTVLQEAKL

As for `COc1c(NC(=O)C(=O)c2ccc(OCCN3CCOCC3)c3ccccc23)cc(C(C)(C)C)cc1NS(C)(=O)=O` [ITX-5061], the pIC50 is 6.03.

Broadly, the pIC50 is the negative decadic logarithm of the IC50, by convention in mol/L.
